Activity calls are given as the source filed them. The calls are words filed in the database; no cut-off is given here. Where a SMILES comes first, the peptide text is derived from it. Bridges are numbered along the chain shown (N, C = ends).
Experiments:
[1] = molecular target: Human immunodeficiency virus type 1 reverse transcriptase (Human immunodeficiency virus 1) (UniProt Q72547); test: Inhibition of recombinant HIV-1 group M subtype B reverse transcriptase p51/p66 expressed in Escherichia coli M15 assessed as change in melting temperature at 100 uM incubated for 1 hr by sypro orange dye based differential scanning fluorimetric analysis; conditions: HIV-1 M:B
[2] = molecular target: T1, Human immunodeficiency virus type 1 reverse transcriptase (Human immunodeficiency virus 1, UniProt Q72547); test: Inhibition of recombinant HIV-1 BH10 reverse transcriptase p51/p66 expressed in Escherichia coli preincubated for 10 mins followed by D38/25PGA template-primer addition and measured after 10 to 30 secs by denaturing PAGE based single nucleotide incorporation assay; set-up: species or system Human immunodeficiency virus type 1 BH10
[3] = molecular target: Human immunodeficiency virus type 1 reverse transcriptase (Human immunodeficiency virus 1) (UniProt Q72547); test: Inhibition of RNase H activity of recombinant HIV-1 BH10 reverse transcriptase p51/p66 expressed in Escherichia coli at 100 uM; conditions: Human immunodeficiency virus type 1 BH10
[4] = molecular target: Human immunodeficiency virus type 1 reverse transcriptase (Human immunodeficiency virus 1) (UniProt Q72547); test: (§1) Inhibition of recombinant HIV-1 BH10 reverse transcriptase p51/p66 expressed in Escherichia coli assessed as reduction in recovery of DNA polymerase activity at 200 uM preincubated with 15% acetonitrile for 15 hrs followed by compound addition and acetonitrile reduced to <1% using poly(rA)/oligo(dT)16 as template/primer in presence of [3H]dTTP relative to control; conditions: Human immunodeficiency virus type 1 BH10
[5] = molecular target: T1, Human immunodeficiency virus type 1 reverse transcriptase; test: Inhibition of HIV-1 reverse transcriptase His-tagged p51 heterodimerization with HIV-1 reverse transcriptase p66 incubated for 16 hrs by ELISA
[6] = molecular target: T1, Human immunodeficiency virus type 1 reverse transcriptase; test: as §1, with “activity” for “activity at 200 uM”, “[3H]dTTP” for “[3H]dTTP relative to control”; set-up: species or system Human immunodeficiency virus type 1 BH10

Molecule	ΔTm [1]	IC50 [2]	inhibition [3]	inhibition [4]	IC50 [5]	IC50 [6]
CC[C@H](C)[C@@H]1NC(=O)CNC(=O)[C@@H]2CCCN2C(=O)[C@H]([C@@H](C)O)NC(=O)C(CCC(=O)O)NC(=O)[C@H](CC(N)=O)NC(=O)C(CC(N)=O)NC(=O)[C@@H]([C@@H](C)CC)NC(=O)[C@H](CO)NC(=O)[C@@H]2CCCN2C(=O)[C@H]([C@@H](C)CC)NC(=O)[C@@H](N)CSSC[C@@H](C(=O)O)NC1=O (stereo partly drawn)	-14.5 °C	> 145 µM	inactive	< 5%	137 µM	> 250 µM
CC[C@H](C)[C@@H]1NC(=O)[C@H](CO)NC(=O)[C@H](N)CSSC[C@@H](C(=O)O)NC(=O)[C@@H]2CCCN2C(=O)[C@H]([C@@H](C)O)NC(=O)[C@H](CCC(=O)O)NC(=O)[C@H](CC(N)=O)NC(=O)[C@H](CC(N)=O)NC1=O	-15.8 °C	> 145 µM	inactive	43%	61 µM	> 250 µM
CC[C@H](C)[C@H](NC(=O)CNC(=O)[C@@H]1CCCN1C(=O)[C@@H](NC(=O)[C@H](CCC(=O)O)NC(=O)[C@H](CC(N)=O)NC(=O)[C@H](CC(N)=O)NC(=O)[C@@H](NC(=O)[C@H](CO)NC(=O)[C@@H]1CCCN1C(=O)[C@@H](NC(=O)[C@@H](NC(=O)[C@@H](N)Cc1ccccc1)[C@@H](C)O)[C@@H](C)CC)[C@@H](C)CC)C(C)O)C(=O)N[C@@H](CCCNC(=N)N)C(=O)N[C@@H](Cc1ccc(O)cc1)C(=O)O (single isomer, unassigned)	-15.6 °C	> 145 µM	inactive	–	–	–
H-IPSINNETPGI-OH	-13.6 °C	> 145 µM	inactive	–	> 150 µM	–
Cc1cn([C@@H]2O[C@H](CO[Si](C)(C)C(C)(C)C)[C@]3(C=CS(=O)(=O)O3)[C@H]2O[Si](C)(C)C(C)(C)C)c(=O)[nH]c1=O	-1.4 °C	–	–	–	–	–

Results, then the molecule that gave them:

ΔTm [1]	IC50 [2]	inhibition [3]	inhibition [4]	IC50 [5]	IC50 [6]	Molecule
-15 °C	> 145 µM	inactive	–	–	–	CC[C@H](C)[C@@H]1NC(=O)[C@H](CCCNC(=N)N)NC(=O)[C@H](Cc2ccc(O)cc2)NC(=O)[C@H]2CCCN2C(=O)[C@@H]2CCCN2C(=O)[C@H](Cc2ccccc2)NC(=O)[C@H]([C@H](C)O)NC(=O)[C@H]([C@@H](C)CC)NC(=O)[C@@H]2CCCN2C(=O)[C@H](CC(N)=O)NC(=O)[C@H]([C@@H](C)CC)NC(=O)[C@@H](CO)NC(=O)[C@H](CC(N)=O)NC(=O)[C@@H](CCC(=O)O)NC(=O)[C@H]([C@H](C)O)NC(=O)[C@@H]2CCCN2C(=O)CNC1=O
-15.8 °C	109 µM	inactive	–	37 µM	203 µM	CC[C@H](C)[C@@H]1NC(=O)[C@@H](N)CSSC[C@@H](C(=O)O)NC(=O)[C@H](CCC(=O)O)NC(=O)[C@H](CC(N)=O)NC(=O)[C@H](CC(N)=O)NC1=O (H-CINNEC-OH; disulfide 1-6)
